Consider seven molecules from patent US20210002650A1, “COMPOSITIONS AND METHODS FOR TREATING ALZHEIMER'S DISEASE” (University of Virginia Patent Foundation, priority 2019, published 2021).

Counter-ions that a name gives are not always drawn.

The subject of one data set is Tg2576 AD model mice. Kind of data set: neuronal CCR in vivo, cyclin D1-positive cortical neurons in brain sections after memantine in drinking water. Set-up: species or system mouse. As to conditions: memantine ~30 mg/kg/day in drinking water from 3 weeks until 2 months of age. On the procedure:
Brain tissue sections were obtained from mice that were transcardially perfused first with 10 ml of phosphate buffer (PB; 0.1 M sodium phosphate, pH 7.6), followed by 10 ml of 4% paraformaldehyde in PB at a flow rate of 1.5 ml/minute. Next, brains were removed and placed in 4% paraformaldehyde in PB for 24 hours, washed 3 times in PBS, incubated in 30% sucrose overnight, and flash frozen using dry ice. Frozen tissue was stored at −80° C. until ready for sectioning to 40 μm thickness on a Microm HM 505 E cryostat. […]
Cultured neurons and brain sections were imaged on either of two microscopes: 1) Nikon Eclipse Ti equipped with a Yokogawa CSU-X1 spinning disk head, 20×0.75 NA CFI Plan Apo, 40×1.3 NA CFI S Fluor and 60×1.4 NA Plan Apo objectives; 405 nm, 488 nm, 561 nm and 640 nm lasers; and a Hamamatsu Flash 4.0 scientific CMOS camera; or 2) EVOS FL imaging system (Invitrogen). […] CCR-positive cells were counted using the ImageJ cell counter plugin for brain sections (available at an NIH website), and were counted manually using the EVOS microscope for primary neuron cultures. For cultured neurons (FIGS. 1-4, S5 and S2), 4 biological replicates of >300 neurons were counted per condition per experiment. […]

The subject of data set [1] is primary mouse cortical neurons. Briefly: AβO-induced neuronal cell cycle re-entry (CCR), cyclin D1/NeuN/MAP2 triple immunofluorescence. In kind it is cell-based. Set-up: induction of CCR in primary neuron cultures: dose or concentration left out as unconfirmed. On the procedure:
Cortical neuron cultures derived from E17/18 wild type C57/BL6 mouse embryos prepared and maintained as described previously. Cultures were maintained for 16-18 days prior to experimental manipulations.
20 μl aliquots were stored at −80° C. until ready to use. To prepare oligomers, an aliquot was dried in a speed vac for 3 hours, solubilized in 1 mM in dimethyl sulfoxide (Sigma, D2650-5X5ML), placed in a water bath sonicator for 5 minutes, and then supplemented with Neurobasal medium (GIBCO/Life Technologies, 21103-049) to yield a final peptide concentration of 100 μM. The solution was then placed on an orbiting rocker at 4° C. for 48 hours, after which it was centrifuged at 14,000×g in a tabletop microcentrifuge for 15 minutes to pellet large aggregates.
All steps were performed at room temperature unless indicated otherwise. Primary mouse cortical neurons grown on #1.5 thickness, 12 mm round glass coverslips were rinsed once with ice-cold phosphate buffered saline (PBS), and then were fixed in 4% paraformaldehyde in PBS for 12 minutes. Following fixation, the cells were rinsed 3 times for 5 minutes each with ice cold PBS, permeabilized for 15 minutes with PBS containing 0.2% Triton X-100 (Fisher, 9002-93-1), and rinsed 3 times for 5 minutes each with PBS. Next, the cells were blocked with PBST (PBS supplemented with 2% bovine serum albumin (BSA; Roche, 03116956001); and 0.1% Tween 20 (Fisher, 9005-64-5) for 1 hour, after which they were labeled overnight with primary antibodies followed by secondary antibodies for 1 hour. Antibodies were diluted into 2% BSA in PBS, and after each antibody incubation step the cells were rinsed 3 times for 5 minutes each with PBS. Finally, the coverslips were rinsed with ultrapure water and mounted onto slides using Fluormount-G (Southern Biotech, 0100-01) containing 1% 1,4-diazabicyclo[2.2.2]octane (Sigma, D27802-25MG), an anti-quenching agent.
Cultured neurons and brain sections were imaged on either of two microscopes: 1) Nikon Eclipse Ti equipped with a Yokogawa CSU-X1 spinning disk head, 20×0.75 NA CFI Plan Apo, 40×1.3 NA CFI S Fluor and 60×1.4 NA Plan Apo objectives; 405 nm, 488 nm, 561 nm and 640 nm lasers; and a Hamamatsu Flash 4.0 scientific CMOS camera; or 2) EVOS FL imaging system (Invitrogen). Micrographs were captured using either Nikon Elements or EVOS software. CCR-positive cells were counted using the ImageJ cell counter plugin for brain sections (available at an NIH website), and were counted manually using the EVOS microscope for primary neuron cultures. For cultured neurons (FIGS. 1-4, S5 and S2), 4 biological replicates of >300 neurons were counted per condition per experiment.
To test the hypothesis that neuronal CCR is calcium-dependent we first treated primary mouse cortical neurons with BAPTA-AM, a cell-permeant chelator of intracellular calcium, beginning 30 minutes prior to addition of AβOs to the cultures.
Accordingly, primary neuron cultures were treated with MK-801, an NMDAR inhibitor that blocks calcium entry through the channel pore, beginning 30 minutes before AβOs were added. […] Otherwise identical experiments were performed using 6-cyano-7-nitroquinoxaline-2,3-dione (CNQX) to block plasma membrane AMPA receptors (FIG. 7), 2-aminoethoxydiphenyl borate (2-ABP) to block ER-associated IP3 receptors and TRP channels (FIG. 8), or dantrolene to inhibit ER-associated ryanodine receptors (FIG. 8).

For data set [2] the following is noted: cited from earlier work.
For a further data set, the system named is CaMKII. Kind of data set: phospho-activated versus total CaMKII by western blotting of AβO-treated cortical neurons. In kind it is cell-based, mouse. As to conditions: 10 μM MK-801, 30 minute pre-treatment; 15 minutes after AβO addition. On the procedure:
Samples were resolved on 12% SDS polyacrylamide gels, then transferred at 100 V for 1.75 hours onto 0.22 μm pore size nitrocellulose membranes using a Bio-Rad Mini-PROTEAN Tetra Electrophoresis Cell. Following transfer, blots were rinsed once in tris-buffered saline (TBS), blocked for 30-60 minutes in blocking buffer (LI-COR, 927-50000), sequentially incubated in primary antibodies overnight at 4° C. in antibody buffer (1:1 mix of blocking buffer, and TBST: TBS+0.1% Tween-20), then LI-COR infrared-labeled secondary antibodies for 30 minutes. Blots were rinsed 3 times for 5 minutes each using TBST after the primary antibody or TBS after the secondary antibody. Finally, membranes were scanned using a LI-COR Odyssey imaging station.
CaMKII is of particular interest, as it can be activated via calcium influx through NMDAR. We thus tested the hypothesis that AβO-mediated calcium influx through NMDAR activates CaMKII as a mediator of CCR. Again, we treated primary neurons with AβOs with or without a 30 minute MK-801 pre-treatment, and collected the cells at various time points from 0-2 hours after AβO stimulation for western blotting with antibodies to phospho-activated and total CaMKII. […] The AβO-mediated activation of CaMKII necessary for CCR [19] is therefore dependent upon calcium influx through NMDAR.

[3] abbreviates: 10 μM, 30 minute pre-treatment, 16-18 hours AβOs.

On to `CC12CC3CC(C)(C1)CC(N)(C3)C2` [memantine, 1-amino-3,5-dimethyladamantane hydrochloride], for which the “neuronal CCR along cortical regions (cyclin D1 immunoreactivity)” value with Tg2576 AD model mice (Tg2576 mice (untreated 8.8%)) is on record as “reduced to WT levels”; in the data set with Tg2576 AD model mice (WT mice), 1.6%. For the same molecule, in data set [1] (setting [3]), the “AβO-induced neuronal CCR (cyclin D1-positive neurons)” value (from here on “AβO-induced neuronal CCR”) is on record as “prevented AβOs from inducing neuronal CCR”. Besides, in data set [2], the solubility in water result is listed as “soluble in water”.
With `CN[C@H](CC(=O)O)C(=O)O` [NMDA], the “induction of CCR in primary neuron cultures” value in data set [1] (30 second shock of NMDA, no AβOs) is “induces CCR”.
In the case of `C[C@]12N[C@H](Cc3ccccc31)c1ccccc12` [MK-801, (1S,9R)-1-methyl-16-azatetracyclo[7.6.1.02,7.010,15]hexadeca-2,4,6,10,12,14-hexaene], the “AβO-mediated transient activation of CaMKII (phosphorylated relative to total CaMKII)” value in the data set on CaMKII was “activation was prevented”. Moreover, in data set [1] (setting [3]), the “AβO-induced neuronal CCR” value is “blocked the induction of CCR”.
For the molecule `O=C1CN(/N=C/c2ccc(-c3ccc([N+](=O)[O-])cc3)o2)C(O)=N1` [dantrolene], the “AβO-induced neuronal CCR” value in data set [1] (20 μM dantrolene to block ryanodine receptors, 18 hours AβOs) was “none of those inhibitors blocked CCR”.
`NCCOB(c1ccccc1)c1ccccc1` [2-ABP, 2-aminoethoxydiphenyl borate]: the “AβO-induced neuronal CCR” value in data set [1] (50 μM 2-APB to block IP3 receptors, 18 hours AβOs) was “none of those inhibitors blocked CCR”.
As to `N#Cc1cc2c(cc1[N+](=O)[O-])=NC(=O)C(=O)N=2` [CNQX, 6-cyano-7-nitroquinoxaline-2,3-dione], in data set [1] (setting [3]), the “AβO-induced neuronal CCR” value is “none of those inhibitors blocked CCR”.
On to `CC(=O)OCOC(=O)CN(CC(=O)OCOC(C)=O)c1ccccc1OCCOc1ccccc1N(CC(=O)OCOC(C)=O)CC(=O)OCOC(C)=O` [BAPTA-AM, 1,2-Bis(2-aminophenoxy)ethane-N,N,N′,N′-tetraacetic acid tetrakis(acetoxymethyl ester)], for which, in data set [1] (setting [3]), the “AβO-induced neuronal CCR” value was “prevented”.
